# Active and inactive are the calls of the source. No cut-off for these calls is given here. Peptide text beside a SMILES is read from it.
# What was measured:
# [1] = test system: Escherichia coli; assay: Synergistic antibacterial activity against wild type Escherichia coli BW25113 assessed as levofloxacin MIC at 16 microg/ml incubated for 18 hrs by broth dilution assay; assay type: functional; settings: dose 16 µg/ml
# [2] = test system: Escherichia coli; assay: Synergistic antibacterial activity against wild type Escherichia coli BW25113 assessed as erythromycin MIC at 8 microg/ml incubated for 18 hrs by broth dilution assay; assay type: functional; settings: dose 8 µg/ml
# [3] = test system: Escherichia coli; assay: Synergistic antibacterial activity against wild type Escherichia coli BW25113 assessed as levofloxacin MIC at 64 microg/ml incubated for 18 hrs by broth dilution assay; assay type: functional; settings: dose 64 µg/ml
# [4] = test system: Escherichia coli; assay: Synergistic antibacterial activity against wild type Escherichia coli BW25113 assessed as minocycline MIC at 128 microg/ml incubated for 18 hrs by broth dilution assay; assay type: functional; settings: dose 128 µg/ml
# [5] = test system: Escherichia coli; assay: Synergistic antibacterial activity against wild type Escherichia coli BW25113 assessed as levofloxacin MIC at 128 microg/ml incubated for 18 hrs by broth dilution assay; assay type: functional; settings: dose 128 µg/ml
# [6] = test system: Escherichia coli; assay: Synergistic antibacterial activity against wild type Escherichia coli BW25113 assessed as minocycline MIC at 8 microg/ml incubated for 18 hrs by broth dilution assay; assay type: functional; settings: dose 8 µg/ml
# [7] = test system: Escherichia coli; assay: Synergistic antibacterial activity against wild type Escherichia coli BW25113 assessed as erythromycin MIC at 128 microg/ml incubated for 18 hrs by broth dilution assay; assay type: functional; settings: dose 128 µg/ml
# [8] = test system: Escherichia coli; assay: Synergistic antibacterial activity against wild type Escherichia coli BW25113 assessed as minocycline MIC at 32 microg/ml incubated for 18 hrs by broth dilution assay; assay type: functional; settings: dose 32 µg/ml
# [9] = test system: Escherichia coli; assay: Synergistic antibacterial activity against wild type Escherichia coli BW25113 assessed as minocycline MIC at 64 microg/ml incubated for 18 hrs by broth dilution assay; assay type: functional; settings: dose 64 µg/ml
# [10] = test system: Escherichia coli; assay: Synergistic antibacterial activity against wild type Escherichia coli BW25113 assessed as erythromycin MIC at 64 microg/ml incubated for 18 hrs by broth dilution assay; assay type: functional; settings: dose 64 µg/ml
# [11] = test system: Escherichia coli; assay: Synergistic antibacterial activity against wild type Escherichia coli BW25113 assessed as levofloxacin MIC at 8 microg/ml incubated for 18 hrs by broth dilution assay; assay type: functional; settings: dose 8 µg/ml
# [12] = test system: Escherichia coli; assay: Synergistic antibacterial activity against wild type Escherichia coli BW25113 assessed as erythromycin MIC at 16 microg/ml incubated for 18 hrs by broth dilution assay; assay type: functional; settings: dose 16 µg/ml
# [13] = test system: Escherichia coli; assay: Synergistic antibacterial activity against wild type Escherichia coli BW25113 assessed as erythromycin MIC at 32 microg/ml incubated for 18 hrs by broth dilution assay; assay type: functional; settings: dose 32 µg/ml
# [14] = test system: Escherichia coli; assay: Synergistic antibacterial activity against wild type Escherichia coli BW25113 assessed as minocycline MIC at 16 microg/ml incubated for 18 hrs by broth dilution assay; assay type: functional; settings: dose 16 µg/ml
# [15] = test system: Escherichia coli; assay: Synergistic antibacterial activity against wild type Escherichia coli BW25113 assessed as levofloxacin MIC at 32 microg/ml incubated for 18 hrs by broth dilution assay; assay type: functional; settings: dose 32 µg/ml
# [16] = Toxicity in Caenorhabditis elegans assessed as survival rate at 128 microg/ml measured after 72 hrs by light microscopic analysis; settings: at 128 µg/mL
# [17] = test system: Escherichia coli; assay: Synergistic antibacterial activity against wild type Escherichia coli BW25113 assessed as minocycline MIC at 8 microg/ml incubated for 18 hrs in presence of colistin by broth dilution assay; assay type: functional; settings: dose 8 µg/ml
# [18] = test system: Escherichia coli; assay: Synergistic antibacterial activity against wild type Escherichia coli BW25113 assessed as minocycline MIC at 32 microg/ml incubated for 18 hrs in presence of colistin by broth dilution assay; assay type: functional; settings: dose 32 µg/ml
# [19] = test system: Escherichia coli; assay: Synergistic antibacterial activity against wild type Escherichia coli BW25113 assessed as fold decrease in levofloxacin MIC at 8 microg/ml incubated for 18 hrs by checkboard based microplate reader analysis; assay type: functional; settings: dose 8 µg/ml
# [20] = test system: Escherichia coli; assay: Synergistic antibacterial activity against wild type Escherichia coli BW25113 assessed as minocycline MIC at 16 microg/ml incubated for 18 hrs in presence of colistin by broth dilution assay; assay type: functional; settings: dose 16 µg/ml
# [21] = Hemolytic activity in mouse RBC assessed as hemolysis at 4 to 256 microg/ml incubated for 1 hr by microplate reader analysis; assay type: toxicity, cell-based, Erythrocyte; settings: mouse red blood cells (erythrocytes), at 4 to 256 µg/mL, dose 4-256 µg/ml, read-out: Activity
# [22] = test system: Escherichia coli; assay: Synergistic antibacterial activity against wild type Escherichia coli BW25113 assessed as erythromycin MIC at 32 microg/ml incubated for 18 hrs in presence of colistin by broth dilution assay; assay type: functional; settings: dose 32 µg/ml
# [23] = test system: Cell membrane; assay: Induction of inner membrane permeabilization in Escherichia coli BW25113 assessed as increase in fluorescence intensity at 64 microg/ml incubated for 10 mins by DiOC2 dye based fluorimeter analysis; assay type: subcellular; settings: dose 64.0 µg/ml
# [24] = test system: Escherichia coli; assay: Synergistic antibacterial activity against wild type Escherichia coli BW25113 assessed as erythromycin MIC at 8 microg/ml incubated for 18 hrs in presence of colistin by broth dilution assay; assay type: functional; settings: dose 8 µg/ml
# [25] = test system: Escherichia coli; assay: Synergistic antibacterial activity against wild type Escherichia coli BW25113 assessed as erythromycin MIC at 64 microg/ml incubated for 18 hrs in presence of colistin by broth dilution assay; assay type: functional; settings: dose 64 µg/ml
# [26] = test system: Escherichia coli; assay: Synergistic antibacterial activity against wild type Escherichia coli BW25113 assessed as minocycline MIC at 64 microg/ml incubated for 18 hrs in presence of colistin by broth dilution assay; assay type: functional; settings: dose 64 µg/ml
# [27] = test system: Escherichia coli; assay: Synergistic antibacterial activity against wild type Escherichia coli BW25113 assessed as levofloxacin MIC at 8 microg/ml incubated for 18 hrs in presence of colistin by broth dilution assay; assay type: functional; settings: dose 8 µg/ml
# [28] = molecular target: T1, Multidrug efflux pump subunit AcrB (Escherichia coli (strain K12)) (UniProt P31224); assay: Inhibition of Escherichia coli BW25113 AcrB assessed as inhibition of nile red efflux at 50 uM incubated for 15 mins
# T1 sequence (whole entry): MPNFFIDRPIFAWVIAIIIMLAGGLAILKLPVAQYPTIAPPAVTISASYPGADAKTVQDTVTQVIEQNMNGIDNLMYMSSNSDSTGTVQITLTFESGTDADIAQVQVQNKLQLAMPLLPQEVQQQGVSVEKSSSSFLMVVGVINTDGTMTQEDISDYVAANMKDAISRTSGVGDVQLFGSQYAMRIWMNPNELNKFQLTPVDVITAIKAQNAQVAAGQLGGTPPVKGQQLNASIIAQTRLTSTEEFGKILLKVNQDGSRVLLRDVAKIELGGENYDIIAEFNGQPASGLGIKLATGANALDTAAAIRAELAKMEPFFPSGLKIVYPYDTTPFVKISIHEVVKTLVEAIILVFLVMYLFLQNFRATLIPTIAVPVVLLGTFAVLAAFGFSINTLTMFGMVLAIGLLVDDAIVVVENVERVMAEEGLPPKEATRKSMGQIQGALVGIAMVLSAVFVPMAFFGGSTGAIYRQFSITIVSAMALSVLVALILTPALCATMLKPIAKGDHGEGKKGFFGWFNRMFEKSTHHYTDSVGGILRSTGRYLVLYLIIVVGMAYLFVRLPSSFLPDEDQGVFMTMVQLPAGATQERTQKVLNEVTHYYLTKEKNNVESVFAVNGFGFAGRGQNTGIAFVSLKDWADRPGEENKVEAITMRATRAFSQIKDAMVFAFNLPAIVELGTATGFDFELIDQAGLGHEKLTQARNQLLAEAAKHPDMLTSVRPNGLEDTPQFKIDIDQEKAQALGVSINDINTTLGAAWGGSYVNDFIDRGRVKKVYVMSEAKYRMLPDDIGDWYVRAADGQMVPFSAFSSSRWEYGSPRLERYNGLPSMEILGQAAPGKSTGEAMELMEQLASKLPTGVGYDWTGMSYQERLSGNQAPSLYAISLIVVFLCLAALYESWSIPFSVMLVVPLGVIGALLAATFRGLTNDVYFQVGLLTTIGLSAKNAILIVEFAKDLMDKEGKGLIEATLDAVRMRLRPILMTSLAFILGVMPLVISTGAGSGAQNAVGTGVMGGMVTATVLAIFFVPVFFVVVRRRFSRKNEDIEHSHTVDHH
# [29] = test system: Escherichia coli; assay: Synergistic antibacterial activity against wild type Escherichia coli BW25113 assessed as levofloxacin MIC at 64 microg/ml incubated for 18 hrs in presence of colistin by broth dilution assay; assay type: functional; settings: dose 64 µg/ml
# [30] = test system: Escherichia coli; assay: Synergistic antibacterial activity against wild type Escherichia coli BW25113 assessed as minocycline MIC at 4 microg/ml incubated for 18 hrs in presence of colistin by broth dilution assay; assay type: functional; settings: dose 4 µg/ml
# [31] = test system: Escherichia coli; assay: Synergistic antibacterial activity against wild type Escherichia coli BW25113 assessed as levofloxacin MIC at 32 microg/ml incubated for 18 hrs in presence of colistin by broth dilution assay; assay type: functional; settings: dose 32 µg/ml
# [32] = test system: Escherichia coli; assay: Synergistic antibacterial activity against wild type Escherichia coli BW25113 assessed as erythromycin MIC at 16 microg/ml incubated for 18 hrs in presence of colistin by broth dilution assay; assay type: functional; settings: dose 16 µg/ml
# [33] = test system: Escherichia coli; assay: Synergistic antibacterial activity against wild type Escherichia coli BW25113 assessed as levofloxacin MIC at 16 microg/ml incubated for 18 hrs in presence of colistin by broth dilution assay; assay type: functional; settings: dose 16 µg/ml
# [34] = test system: Escherichia coli; assay: Synergistic antibacterial activity against wild type Escherichia coli BW25113 assessed as levofloxacin MIC at 128 microg/ml incubated for 18 hrs in presence of colistin by broth dilution assay; assay type: functional; settings: dose 128 µg/ml
# [35] = test system: Escherichia coli; assay: Synergistic antibacterial activity against wild type Escherichia coli BW25113 assessed as fold decrease in erythromycin MIC at 128 microg/ml incubated for 18 hrs by checkboard based microplate reader analysis; assay type: functional; settings: dose 128 µg/ml
# [36] = test system: Escherichia coli; assay: Synergistic antibacterial activity against wild type Escherichia coli BW25113 assessed as minocycline MIC at 128 microg/ml incubated for 18 hrs in presence of colistin by broth dilution assay; assay type: functional; settings: dose 128 µg/ml
# [37] = test system: Escherichia coli; assay: Synergistic antibacterial activity against wild type Escherichia coli BW25113 assessed as erythromycin MIC at 128 microg/ml incubated for 18 hrs in presence of colistin by broth dilution assay; assay type: functional; settings: dose 128 µg/ml
SMILES,MIC [1] [ng/mL],MIC [2] [µg/mL],MIC [3] [ng/mL],MIC [4] [µg/mL],MIC [5] [ng/mL],MIC [6] [µg/mL],MIC [7] [µg/mL],MIC [8] [µg/mL],MIC [9] [µg/mL],MIC [10] [µg/mL],MIC [11] [µg/mL],MIC [12] [µg/mL],MIC [13] [µg/mL],MIC [14] [µg/mL],MIC [15] [ng/mL],"survival at 72 h, 128 microg/ml [16] [%]",MIC [17] [µg/mL],MIC [18] [µg/mL],MIC [20] [µg/mL],hemolysis at 1 h [21] [%],also measured
N=C(N)NCCC[C@H](NC(=O)[C@@H](N)Cc1ccccc1)C(=O)Nc1ccc2ccccc2c1 [PABETAN] (HELM PEPTIDE1{F.R.[c1ccc2cc(N[*:1])ccc2c1]}$$$$V2.0),8,16,8,0.25,1,0.5,2,0.5,0.5,4,0.016,8,4,0.5,8,,,,,,
CC1(C)S[C@@H]2[C@H](NC(=O)[C@H](N)c3ccccc3)C(=O)N2[C@H]1C(=O)O [AMPICILLIN],,,,,,,,,,,,,,,,99,,,,,
CC1(C)CCc2c(C(=O)N3CCOCC3)cc3c(OCCCSc4ccc(N)cc4)cccc3c2O1,8,64,8,1,8,,64,1,1,64,0.008,64,64,1,8,90,1,1,1,< 5,fold change (FC) [19]: 4; MIC [22]: 8 µg/mL; Activity [23]: inactive; MIC [24]: 8 µg/mL; MIC [25]: 8 µg/mL; MIC [26]: 0.5 µg/mL; MIC [27]: 0.032 µg/mL; inhibition [28]: Active; MIC [29]: 0.008 µg/mL; MIC [30]: 1 µg/mL; MIC [31]: 0.016 µg/mL; MIC [32]: 8 µg/mL; MIC [33]: 0.016 µg/mL
CC1(C)CCc2c(C(=O)N3CCOCC3)cc3c(OCCOc4ccc([N+](=O)[O-])cc4)cccc3c2O1,32,64,32,2,32,2,16,2,2,32,0.032,64,64,2,32,90,1,1,1,< 5,MIC [34]: 0.032 µg/mL; fold change (FC) [35]: 4; MIC [22]: 8 µg/mL; MIC [36]: 0.5 µg/mL; Activity [23]: inactive; MIC [24]: 8 µg/mL; MIC [25]: 8 µg/mL; MIC [26]: 0.5 µg/mL; MIC [27]: 0.032 µg/mL; MIC [37]: 4 µg/mL; MIC [29]: 0.032 µg/mL; MIC [31]: 0.032 µg/mL; MIC [32]: 8 µg/mL; MIC [33]: 0.032 µg/mL
